In patent publication US8741903B2, “Organic compound for use in the treatment of hepatocellular cancer (HCC)” (priority 2010, dated 2014):
Like-named read-outs stand apart in the source and are kept apart here.

What was measured:
[1] = test system: HUH7 human HCC xenografts; format: in vivo; conditions: 21 days, HUH7 xenograft
Procedure: 12 days after the injection of tumor cells the tumor volumes are 138±24 mm^3.
Each group contains 8 animals. […] The application volumes in all experiments were 10 ml/kg.

[2] = test system: PLC/PFR/5 human HCC xenografts; assay: PLC/PFR/5 human HCC subcutaneous xenograft in female nude mice; conditions: 24 days; for % T/C (ΔT/ΔC %, tumor volume): PLC/PFR/5 xenograft
unresectable HCC = conditions: 1st line treatment, patients with unresectable HCC; cited from earlier work
HCC = HCC patients of Asia-Pacific region; cited from earlier work
[3] = 50 mg/kg p.o. qd, statistically significant

Structure (SMILES) | % T/C (ΔT/ΔC %, tumor volume) ([1]; 10 mg/kg p.o. qd) | % T/C (ΔT/ΔC %, tumor volume) ([1]; 30 mg/kg p.o. qd, statistically significant) | % T/C (ΔT/ΔC %, tumor volume) [1, 3] | % T/C (ΔT/ΔC %, tumor volume) ([2]; 10 mg/kg p.o. qd) | % T/C (ΔT/ΔC %, tumor volume) ([2]; 30 mg/kg p.o. qd) | % T/C (ΔT/ΔC %, tumor volume) [2, 3] | effect on body weight as compared to the vehicle-treated group ([2]; 10, 30 and 50 mg/kg p.o. qd) | median overall survival (unresectable HCC) | median overall survival (HCC)
CN1CCN(c2ccc3nc(-c4c(N)c5c(F)cccc5[nH]c4=O)[nH]c3c2)CC1 [Compound I, 4-amino-5-fluoro-3-[6-(4-methylpiperazin-1-yl)-1H-benzimidazol-2-yl]-1H-quinolin-2-one] | 75% | 40% | 20% | 67% | 47% | 19% | no significant effect on body weight |  | 
CNC(=O)c1cc(Oc2ccc(NC(=O)Nc3ccc(Cl)c(C(F)(F)F)c3)cc2)ccn1 [sorafenib] |  |  |  |  |  |  |  | 10.7 months | 6.5 months
